From patent US6951887B2 (The Research Foundation of State University of New York, priority 1998, dated 2005)

Key:
NIH 3T3 ras transformed = experiment: killing of cultured cells, ras-transformed NIH 3T3 (T24); assay type: cell-based; set-up: key to cells killed by treatment: “+” indicates that the cells were killed by treatment; “−” indicates that they were not; “+/−” indicates a slow marginal response seen only in a few special cases with fibroblasts experimentally transformed by introduction of the ras oncogene
Source text: (§1) Table 1: Summarized are the responses of cells in culture to killing by example members of the family of blocked lipoate derivatives that are the object of this invention as well as one control compound (dihydroxyoctanoic acid). At right is indicated the specific cell line followed by the tissue of origin of the cell line. Across the top are listed the specific compounds tested. Each blocked lipoate derivative was used at two to fourfold above its threshold killing concentration. [These concentrations range form 0.15 mM (60 ug/ml or 60 mg/kg) to 2.5 mM (800 ug/ml or 800 mg/kg) (see EXAMPLE 11).] […] “+/−” indicates a slow marginal response seen only in a few special cases with fibroblasts experimentally transformed by introduction of the ras oncogene (EXAMPLE 10).
(§2) First, each cell type to be tested was plated at low densities in the wells of a standard 6×24 well tissue culture plate. (Multiple wells are seeded for each cell type.)
(§3) Second, the cells were allowed to grow to moderate densities. Transformed cells are in contact and non-transformed cells are contact-inhibited under these conditions.
(§4) Third, the lipoate derivatives to be tested were added to individual wells. In these experiments each compound was added at two to fourfold above the threshold killing concentration for cancer cells (EXAMPLE 11).
(§5) Fourth, cells were monitored over the next several days.
(§6) NIH-3T3 cells are relatively normal, noncancerous cells. However, if an activated allele of the ras oncogene is introduced into these cells they become highly malignant (cancerous) as assessed by several assays (REFERENCE).

Saos 2 (Bone) = experiment: killing of cultured cells, Saos 2; assay type: cell-based; set-up: key: “+” indicates that the cells were killed by treatment; “−” indicates that they were not; “+/−” indicates a slow marginal response seen only in a few special cases with fibroblasts experimentally transformed by introduction of the ras oncogene; conditions: compound at two to fourfold above its threshold killing concentration
Source text: as §1, §2, §3, §4, §5

RD (Embryo) = experiment: killing of cultured cells, RD; assay type: cell-based; set-up: key to cells killed by treatment: “+” indicates that the cells were killed by treatment; “−” indicates that they were not; “+/−” indicates a slow marginal response seen only in a few special cases with fibroblasts experimentally transformed by introduction of the ras oncogene
Source text: as §1, §2, §3, §4, §5

MDCK (Kidney) = experiment: killing of cultured cells, MDCK; assay type: cell-based; conditions: 120 ug/ml, ca. 48 hours
Source text: as §1, §2, §3, §4, §5

MCF 7 (Breast) = experiment: killing of cultured cells, MCF 7; assay type: cell-based; set-up: key: “+” indicates that the cells were killed by treatment; “−” indicates that they were not; “+/−” indicates a slow marginal response seen only in a few special cases with fibroblasts experimentally transformed by introduction of the ras oncogene; conditions: compound at two to fourfold above its threshold killing concentration
Source text: as §1, §2, §3, §4, §5

HeLa (Cervix) = experiment: killing of cultured cells, HeLa; assay type: cell-based; set-up: key to cells killed by treatment: “+” indicates that the cells were killed by treatment; “−” indicates that they were not; “+/−” indicates a slow marginal response seen only in a few special cases with fibroblasts experimentally transformed by introduction of the ras oncogene
Source text: as §1, §2, §3, §4, §5

B16 (Skin) = experiment: killing of cultured cells, B16; assay type: cell-based; set-up: key: “+” indicates that the cells were killed by treatment; “−” indicates that they were not; “+/−” indicates a slow marginal response seen only in a few special cases with fibroblasts experimentally transformed by introduction of the ras oncogene; conditions: compound at two to fourfold above its threshold killing concentration
Source text: as §1, §2, §3, §4, §5

[1] = nonspecific toxicity by intraperitoneal injection; conditions: C57/BL, mouse, in vivo, ip
Procedure: (All studies described in this section were carried out by intraperitoneal (IP) injection into C57/BL mice.)

[2] = test system: HeLa (cervical cancer) cells; experiment: TUNEL assay for apoptosis; assay type: cell-based; conditions: ca. 20-24 hours, ca. twofold above threshold killing concentration
Source text: In order to understand the experiment described in this Example is necessary to review details concerning the specific assay used in the experiments. Nuclear DNA of cells is normally present in the very long molecules making up chromosomes. These very long polymer molecules have only extremely rare free ends. In contrast, after the induction of apoptosis the cell begins to destroy itself and, in the process, introduces an extremely large number of breaks in its DNA in the process of reducing it to its small monomer constituents. The appropriate enzyme —terminal transferase—will add nucleotides to the free ends of DNA molecules. Moreover, this enzyme will use monomers (nucleotides) for this addition reaction that have highly fluorescent groups added to them. Thus, if the nuclei of normal cells—with few free DNA ends—are exposed to terminal transferase and fluorescent monomers very little fluorescence is added to these nuclei. In contrast, when these components are added to the nuclei of cells undergoing apoptosis and very large number of fluorescent monomers are added—to the very many DNA ends that are present—resulting in a massive introduction of fluorescence. The conventional assay based on these properties is referred by the acronym TUNEL. […] HeLa cancerous cells were plated in several wells in a tissue culture dish. […]

B-16 melanoma = experiment: B-16 system, subcutaneous tumors; assay type: in vivo, mouse; conditions: 50 mg/kg IP twice daily plus twice daily injection directly into the tumor mass
Source text: The B-16 melanoma strain was introduced either subcutaneously or intraperitoneally into individuals of the C57/BL syngeneic mouse strain (7). When left untreated such mice develop massive tumors in the immediate area of injection as well as secondary metastases throughout the animal—including in the liver and the lungs. These malignant growths result in the early death of the animals. Moreover, the resulting malignant growths are made up of darkly pigmented malignant melanocytes—making their assessment convenient and highly reliable. We will henceforth refer to this as the “B-16 system”.
Second, a group of animals were injected at a subcutaneous site with B-16 cells. […] As this time, one group oL animals (experimentals) began a twice-daily series of injections of the bis-acetyl lipoate derivative (100 mg/kg in 100 ul of isotonic saline) and a second set (controls) of corresponding injections of the saline solvent alone. [See EXAMPLES 2, 8 and 11 for the details of bis-acetyl lipoate derivative.]
Third, in several animals subcutaneous tumors were produced as in the preceding paragraph. After the tumors had grown to visible, palpable size, these animals received both a twice daily IP (systemic) dose of 50 mg/kg of bis-benzoyl lipoate as well as a twice daily direct injection a second dose of the same volume directly into the tumor mass.

NIH 3T3 parental = experiment: killing of cultured cells, parental NIH 3T3; assay type: cell-based; conditions: 120 ug/ml, ca. 24 hours of treatment
Source text: as §1, §2
Second, the cells were allowed to grow to moderate densities. Transformed cells are in contact and non-transformed cells are contact-inhibited under these conditions. […]
as §5, §6

In the case of `O=C(O)CCCCC(CCSC(=O)c1ccccc1)SC(=O)c1ccccc1` (stereo not drawn) [bis-benzoyl lipoate, 6,8-bisbenzoylmercaptooctanoic acid], the “cancerous (transformed) cells killed (FIG. 2)” value (NIH 3T3 ras transformed; 120 ug/ml, 24 hours of treatment, T24 ras-transformed NIH3T3) is reported as “ca. 50%”, the “killing of transformed cells (FIG. 2)” value (NIH 3T3 ras transformed; 120 ug/ml, ca. 48 hours of treatment) is reported as “almost entirely irradicated” and the “cells killed by treatment” value (NIH 3T3 ras transformed; NIH 3T3 ras transformed, compound at two to fourfold above its threshold killing concentration) is reported as “+”. The “cells killed by treatment” value (Saos 2 (Bone)) was “+”, the “cell killing, embryonic cancer cells (FIG. 1)” value (RD (Embryo); 120 ug/ml, ca. 48 hours) was “efficiently killed” and the “cells killed by treatment” value (RD (Embryo); RD, Embryo, compound at two to fourfold above its threshold killing concentration) was “+”. The “effect on normal (non-cancerous) kidney epithelial cell line (FIG. 1)” value (MDCK (Kidney)) was “not detectably affected”, the “cells killed by treatment” value (MCF 7 (Breast)) was “+” and the “cells killed by treatment” value (HeLa (Cervix); Cervix, compound at two to fourfold above its threshold killing concentration) was “+”. For the same compound, the “time by which all cancer cells are killed” value (HeLa (Cervix); conditions of FIG. 3) was 48 to 60 h, the “cells killed by treatment” value (B16 (Skin)) was “+” and the LD50 [1] was roughly 1000 mg/kg. The “induction of apoptosis (TUNEL)” value [2] was “induces apoptosis”, the “response of subcutaneous tumor” value (B-16 melanoma) was “especially robust response” and the “effect on noncancerous parental NIH3T3 cells (FIG. 2)” value (NIH 3T3 parental) was “unaffected”.
